Results on 8 compounds are retold here after ChEMBL document CHEMBL1158788, “Cytotoxic constituents of the fruit body of Daedalea dickisii” (J Nat Prod, 2005).

Common to all, as to format: functional, cell-based
Assay [1] concerns HL-60. In words: Induction of apoptosis in human HL60 cells assessed as DNA fragmentation at 35 uM after 8 hrs.
In assay [2] the test system is HL-60. The assay is described as follows: Cytotoxicity against human HL60 cells after 24 hrs by MTT assay. The following applies: HL-60, 24 h. (Tetrazolium dyes change colour on reduction, which living cells bring about.)
Assay [3] concerns HCT-15. In words: Cytotoxicity against human HCT15 cells after 48 hrs by MTT assay. The settings on record: HCT-15, 48 h.

The source made the active and inactive calls. No cut-off for these calls is given here.

Consider `C=C(CC[C@@H](C(=O)O[C@@H]1O[C@H](COC(C)=O)[C@@H](O)[C@H](O)[C@H]1O)[C@H]1[C@H](OC(C)=O)C[C@@]2(C)C3=CC[C@H]4C(C)(C)C(=O)CC[C@]4(C)C3=CC[C@]12C)C(C)C` [DAEDALEASIDE C], for which the result in assay [1] was Active. Inhibition in assay [2] was half-maximal at 12 µM (IC50).
As for `C=C(CC[C@@H](C(=O)O[C@@H]1O[C@H](CO)[C@@H](O)[C@H](O)[C@H]1O)[C@H]1[C@H](OC(C)=O)C[C@@]2(C)C3=C(CC[C@]12C)[C@@]1(C)CCC(=O)C(C)(C)[C@@H]1CC3)C(C)C` [DAEDALEASIDE D], the outcome in assay [1] was Active. The IC50 (in general, the concentration that inhibits the measured activity by half) in assay [2] stood at 14 µM; in assay [3], 60 µM.
As to `C=C(CC[C@@H](C(=O)O)[C@H]1[C@H](O)C[C@@]2(C)c3ccc(C)c(CCC(=O)C(C)C)c3CC[C@]12C)C(C)C` [DAEDALEANIC ACID A], the IC50 is 36 µM in assay [2] and 206 µM in assay [3].
For `COc1cc([C@@H]2c3cc4c(cc3[C@@H](O[C@@H]3O[C@@H]5CO[C@@H](C)O[C@H]5[C@H](O)[C@H]3O)[C@H]3COC(=O)[C@H]23)OCO4)cc(OC)c1O` [ETOPOSIDE], the IC50 in assay [2] came out at 25 µM.
For the compound `C=C(CC[C@@H](C(=O)O[C@@H]1O[C@H](COC(C)=O)[C@@H](O)[C@H](O)[C@H]1O)[C@H]1[C@H](OC(C)=O)C[C@@]2(C)C3=C(CC[C@]12C)[C@@]1(C)CCC(=O)C(C)(C)[C@@H]1CC3)C(C)C` [DAEDALEASIDE E], the outcome in assay [1] was Active. Moreover, the half-maximal inhibitory concentration (IC50) in assay [2] turned out to be 15 µM.
In the case of `CC(C(=O)O)[C@@H](C)C(=O)C[C@@H](C)[C@H]1CC[C@@]2(C)C3=C(CC[C@]12C)[C@@]1(C)CC[C@@H](OC(=O)CC(=O)O)C(C)(C)[C@@H]1CC3` (some centres not stated) [CARBOXYACETYLQUERCINIC ACID], the half-inhibitory concentration (IC50) worked out at 45.2 µM in assay [2] and 155 µM in assay [3].
Take `C=C(CC[C@@H](C(=O)O[C@@H]1O[C@H](CO)[C@@H](O)[C@H](O)[C@H]1O)[C@H]1[C@H](OC(C)=O)C[C@@]2(C)c3ccc(C)c(CCC(=O)C(C)C)c3CC[C@]12C)C(C)C` [DAEDALEASIDES A]: the IC50 in assay [2] came out at 27.9 µM; in assay [3], 32.3 µM.
Regarding `C=C(CC[C@@H](C(=O)O[C@@H]1O[C@H](CO)[C@@H](O)[C@H](O)[C@H]1O)[C@H]1[C@H](OC(C)=O)C[C@@]2(C)C3=CC[C@H]4C(C)(C)C(=O)CC[C@]4(C)C3=CC[C@]12C)C(C)C` [DAEDALEASIDE B], in assay [1], the outcome was Active. The IC50 in assay [2] came out at 9.4 µM; in assay [3], 55 µM.
